US9624215B2, “Amine derivative or salt thereof” (TOYAMA CHEMICAL CO., LTD., priority 2012, dated 2017)
pIC50: −log10 of the molar value.

Tests used:
[1] = test system: TNFα production in LPS-stimulated Raw264.7 cells; assay: TNFα production inhibition test; assay type: cell-based; details: Mus musculus, test compound 1 μmol/L, LPS 1 μg/mL, 16 hours, ELISA, read-out: Inhibition rate of TNFα production
Description: 7×10^4 mouse macrophage-derived cell line Raw264.7 cells were suspended in 100 μL of RPMI1640 medium containing 10% fetal bovine serum, plated in a 96-well plate and incubated overnight. The culture supernatant was removed and the test compound diluted in RPMI1640 medium containing 1% fetal bovine serum (final concentration: 1 μmol/L) was added. One hour after the addition, LPS (B4:0111) (Sigma-Aldrich, L2630) was added to a final concentration of 1 μg/mL. 16 hours after the stimulation, the culture supernatant was collected and the amount of TNFα produced in the culture supernatant was determined using ELISA kit (R&D Systems, MTA00B).
The inhibition rate was calculated from the following formula. Inhibition rate (%)=100−(amount of TNFα produced in the presence of test compound/amount of TNFα produced in the absence of test compound)×100

[2] = test system: normal human neonatal foreskin epidermal keratinocytes (NHEK-F); assay: Cell proliferation inhibition test; assay type: cell-based; details: Keratinocyte, 72 h, NHEK-F cells, three days incubation, ATPlite or CellTiterGlo, read-out: IC50 (concentration of the compound at which the cell count is reduced by 50%)
Method in brief: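 NHEK-F keratinocytes, 2×10^3 per well in Humedia-EG2, plated overnight, then exposed to compound for three days. Cell count by ATPlite or CellTiterGlo luminescence; inhibition = 100 − (treated/untreated count)×100, IC50 as 50% reduction concentration.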

SMILES | inhibition at 1 µM [1] [%] | pIC50 [2]
O=C(O)c1cc(C2CC2)ccc1Nc1ccc2c(c1)sc(=O)n2Cc1ccccc1 [Example 73, 2-((3-benzyl-2-oxo-2,3-dihydrobenzo[d]thiazol-6-yl)amino)-5-cyclopropylbenzoic acid] | ≥ 50 | ≥ 8.00
Cn1c(=O)n(-c2ccccc2)c2ccc(Nc3ccc(C4CC4)cc3C(=O)O)cc21 [Example 78, 5-cyclopropyl-2-((3-methyl-2-oxo-1-phenyl-2,3-dihydro-1H-benzo[d]imidazol-5-yl)amino)benzoic acid] | ≥ 50 | 7.00 to 8.00
O=C(O)c1cc(C2CC2)ccc1Nc1ccc2c(c1)n(CC(F)(F)F)c(=O)n2-c1ccccc1 [Example 80, 5-cyclopropyl-2-((2-oxo-1-phenyl-3-(2,2,2-trifluoroethyl)-2,3-dihydro-1H-benzo[d]imidazol-5-yl)amino)benzoic acid] | ≥ 50 | 7.00 to 8.00
O=C(O)c1cc(C2CC2)ccc1Nc1ccc2c(c1)n(CC1CC1)c(=O)n2-c1ccccc1 [Example 82, 5-cyclopropyl-2-((3-(cyclopropylmethyl)-2-oxo-1-phenyl-2,3-dihydro-1H-benzo[d]imidazol-5-yl)amino)benzoic acid] | ≥ 50 | 7.00 to 8.00
O=C(O)c1cc(Cl)ccc1Nc1ccc2c(ccn2Cc2cccc(OCC(F)(F)F)c2)c1 [Example 84, 5-chloro-2-((1-(3-(2,2,2-trifluoroethoxyl)benzyl)-1H-indol-5-yl)amino)benzoic acid] | ≥ 50 | ≥ 8.00
O=C(O)c1cc(Cl)ccc1Nc1ccc2c(ccn2CC2CC2)c1 [Example 96, 5-chloro-2-((1-(cyclopropylmethyl)-1H-indol-5-yl)amino)benzoic acid] | ≥ 50 | 7.00 to 8.00
O=C(O)c1cc(Cl)ccc1Nc1ccc2c(ccn2C2CC2)c1 [Example 98, 5-chloro-2-((1-(cyclopropyl)-1H-indol-5-yl)amino)benzoic acid] | ≥ 50 | 7.00 to 8.00
Cc1ccc(-n2ccc3cc(Nc4ccc(C5CC5)cc4C(=O)O)ccc32)nn1 [Example 102, 5-cyclopropyl-2-((1-(6-methylpyridazin-3-yl)-1H-indol-5-yl)amino)benzoic acid] | ≥ 50 | 7.00 to 8.00
O=C(O)c1cc(C2CC2)ccc1Nc1ccc2c(ccn2CC2CC2)c1 [Example 104, 5-cyclopropyl-2-((1-(cyclopropylmethyl)-1H-indol-5-yl)amino)benzoic acid] | ≥ 50 | ≥ 8.00
O=C(O)c1cc(C2CC2)ccc1Nc1ccc2c(c1)CC(=O)N2Cc1ccccc1 [Example 107, 2-((1-benzyl-2-oxoindolin-5-yl)amino)-5-cyclopropylbenzoic acid] | ≥ 50 | 7.00 to 8.00
O=C(O)c1cc(C2CC2)ccc1Nc1ccc2c(c1)CC(=O)N2CC1CC1 [Example 108, 5-cyclopropyl-2-((1-(cyclopropylmethyl)-2-oxoindolin-5-yl)amino)benzoic acid] | ≥ 50 | 7.00 to 8.00
CC(C)(C)c1cc2cc(Nc3ccc(C4CC4)cc3C(=O)O)ccc2[nH]1 [Example 110, 2-((2-(tert-butyl)-1H-indol-5-yl)amino)-5-cyclopropylbenzoic acid] | ≥ 50 | 7.00 to 8.00
CC(C)n1ccc2cc(Nc3ccc(C4CC4)cc3C(=O)O)ccc21 [Example 112, 5-cyclopropyl-2-((1-isopropyl-1H-indol-5-yl)amino)benzoic acid] | ≥ 50 | ≥ 8.00
O=C(O)c1cc(C2CC2)ccc1Nc1ccc2c(ccn2Cc2ccc(N3CCCCC3)cc2)c1 [Example 194, 5-cyclopropyl-2-((1-(4-(piperidin-1-yl)benzyl)-1H-indol-5-yl)amino)benzoic acid] | ≥ 50 | ≥ 8.00
O=C(O)c1cc(C2CC2)ccc1Nc1ccc2c(ccn2Cc2ccc(N3CCOCC3)cc2)c1 [Example 196, 5-cyclopropyl-2-((1-(4-morpholinobenzyl)-1H-indol-5-yl)amino)benzoic acid] | ≥ 50 | 7.00 to 8.00
CN(C)c1ccc(Cn2ccc3cc(Nc4ccc(C5CC5)cc4C(=O)O)ccc32)cc1 [Example 198, 5-cyclopropyl-2-((1-(4-(dimethylamino)benzyl)-1H-indol-5-yl)amino)benzoic acid] | ≥ 50 | ≥ 8.00
O=C(O)c1cc(C2CC2)ccc1Nc1ccc2c(ccn2C(=O)c2ccccc2)c1 [Example 202, 2-((1-benzoyl-1H-indol-5-yl)amino)-5-cyclopropylbenzoic acid] | ≥ 50 | ≥ 8.00
CCCCn1ccc2cc(Nc3ccc(Cl)cc3C(=O)O)ccc21 [Example 255, 2-((1-butyl-1H-indol-5-yl)amino)-5-chlorobenzoic acid] | ≥ 50 | 7.00 to 8.00

SMILES | inhibition at 1 µM [1] [%] | pIC50 [2]
O=C(O)c1cc(Cl)ccc1Nc1ccc2c(ccn2-c2ccccc2)c1 [Example 269, 5-chloro-2-((1-phenyl-1H-indol-5-yl)amino)benzoic acid] | ≥ 50 | ≥ 8.00
O=C(O)c1cc(Cl)ccc1Nc1ccc2c(ccn2Cc2cccc(OC(F)F)c2)c1 [Example 277, 5-chloro-2-((1-(3-(difluoromethoxy)benzyl)-1H-indol-5-yl)amino)benzoic acid] | ≥ 50 | ≥ 8.00
O=C(O)c1cc(Cl)ccc1Nc1ccc2c(c1)CN(c1ccccc1)C2=O [Example 281, 5-chloro-2-((1-oxo-2-phenylisoindolin-5-yl)amino)benzoic acid] | ≥ 50 | 6.00 to 7.00
O=C(O)c1cc(Cl)ccc1Nc1ccc2c(c1)CCN2c1ccccc1 [Example 283, 5-chloro-2-((1-phenylindolin-5-yl)amino)benzoic acid] | ≥ 50 | ≥ 8.00
COCCOc1cccc(Cn2ccc3cc(Nc4ccc(Cl)cc4C(=O)O)ccc32)c1 [Example 298, 5-chloro-2-((1-(3-(2-methoxyethoxyl)benzyl)-1H-indol-5-yl)amino)benzoic acid] | ≥ 50 | ≥ 8.00
O=C(O)c1cc(Cl)ccc1Nc1ccc2c(ccn2Cc2cccc(OCCO)c2)c1 [Example 300, 5-chloro-2-((1-(3-(2-hydroxyethoxy)benzyl)-1H-indol-5-yl)amino)benzoic acid] | ≥ 50 | 7.00 to 8.00
O=C(O)c1cc(Cl)ccc1Nc1ccc2c(ccn2-c2ccc(F)cc2)c1 [Example 331, 5-chloro-2-((1-(4-fluorophenyl)-1H-indol-5-yl)amino)benzoic acid] | ≥ 50 | ≥ 8.00
O=C(O)c1cc(Cl)ccc1Nc1ccc2c(ccn2-c2cccc(C(F)(F)F)c2)c1 [Example 333, 5-chloro-2-((1-(3-(trifluoromethyl)phenyl)-1H-indol-5-yl)amino)benzoic acid] | ≥ 50 | ≥ 8.00
O=C(O)c1cc(Cl)ccc1Nc1ccc2c(ccn2-c2ccccc2F)c1 [Example 335, 5-chloro-2-((1-(2-fluorophenyl)-1H-indol-5-yl)amino)benzoic acid] | ≥ 50 | ≥ 8.00
O=C(O)c1cc(Cl)ccc1Nc1ccc2c(ccn2-c2ccccc2C(F)(F)F)c1 [Example 337, 5-chloro-2-((1-(2-(trifluoromethyl)phenyl)-1H-indol-5-yl)amino)benzoic acid] | ≥ 50 | ≥ 8.00
O=C(O)c1cc(C2CC2)ccc1Nc1ccc2c(ccn2-c2cccnc2)c1 [Example 339, 5-cyclopropyl-2-((1-(pyridin-3-yl)-1H-indol-5-yl)amino)benzoic acid] | ≥ 50 | ≥ 8.00
O=C(O)c1cc(Cl)cnc1Nc1ccc2c(cnn2Cc2ccccc2)c1 [Example 354, 2-((1-benzyl-1H-indazol-5-yl)amino)-5-chloronicotinic acid] | ≥ 50 | 7.00 to 8.00
O=C(O)c1cc(Cl)cnc1Nc1ccc2c(ccn2Cc2cccc(OCC(F)(F)F)c2)c1 [Example 357, 5-chloro-2-((1-(3-(2,2,2-trifluoroethoxyl)benzyl)-1H-indol-5-yl)amino)nicotinic acid] | ≥ 50 | 7.00 to 8.00
O=C(O)c1cc(Cl)cnc1Nc1ccc2c(ccn2Cc2cccc(OC(F)(F)F)c2)c1 [Example 361, 5-chloro-2-((1-(3-(trifluoromethoxy)benzyl)-1H-indol-5-yl)amino)nicotinic acid] | ≥ 50 | 7.00 to 8.00
O=C(O)c1cc(Cl)ccc1Nc1ccc2c(ccn2Cc2cccc(OC(F)(F)F)c2)c1 [Example 363, 5-chloro-2-((1-(3-(trifluoromethoxy)benzyl)-1H-indol-5-yl)amino)benzoic acid] | ≥ 50 | ≥ 8.00
COc1ccc(-n2ccc3cc(Nc4ccc(C5CC5)cc4C(=O)O)ccc32)cc1 [Example 373, 5-cyclopropyl-2-((1-(4-methoxyphenyl)-1H-indol-5-yl)amino)benzoic acid] | ≥ 50 | ≥ 8.00
O=C(O)c1cc(C2CC2)ccc1Nc1ccc2c(ccn2-c2ccc(C(F)(F)F)cc2)c1 [Example 375, 5-cyclopropyl-2-((1-(4-(trifluoromethyl)phenyl)-1H-indol-5-yl)amino)benzoic acid] | ≥ 50 | ≥ 8.00
